One may read the viability as a read-out of living cells in per cent, often relative to untreated cells.

These results are taken from PMC12040169 (PLOS Biology, 2025).

Each structure is given as a SMILES string.

The first data set is described as follows: in vitro. Conditions: human, hela cells, % viability.
Turning to `COc1ccc(CSCc2n[nH]c(=O)[nH]2)cc1[N+](=O)[O-]` [CBK267425], the viability at 28.5 h, 10 µM came to 101%.

For the compound `Oc1n[nH]c(CSCc2ccccc2Cl)n1` [CBK267427], the viability at 28.5 h, 10 µM came to 87.6%.

Take `CC(Oc1ccccc1)C(=O)N1CCN(CCO)CC1` (centres unmarked) [CBK267428]: the viability at 28.5 h, 10 µM is 98.6%. Take `Cc1nn(C)c(C)c1NC(=O)CSc1nnc(-c2cccc(Br)c2)n1-c1ccccc1` [CBK267430]: the viability at 28.5 h, 10 µM came to 103%.

As to `CC(Oc1ccc(C(C)(C)C)cc1)C(=O)Nc1nnc[nH]1` (centres unmarked) [CBK267431], the viability at 28.5 h, 10 µM came out at 94.8%.

For the compound `CN(CC(=O)Nc1ccccc1-c1ccccc1)S(=O)(=O)c1ccc2ccccc2c1` [CBK267432], the viability at 28.5 h, 10 µM is 104%.

Turning to `O=C(O)CNC(=O)c1ccc(S(=O)(=O)N2CCCC2)cc1` [CBK267434], the viability at 28.5 h, 10 µM is 87%.

As to `COc1cc(NC(=O)c2ccc3c(c2)C(=O)N(Cc2ccco2)C3=O)c(C(=O)O)cc1OC` [CBK267436], the viability at 28.5 h, 10 µM was 105%. Regarding `O=C(O)CNC(=O)c1ccc(S(=O)(=O)N2CCOCC2)cc1` [CBK267437], the viability at 28.5 h, 10 µM was 112%. Same read-out and setting: the same measure for `O=C1CC(N2CCC(c3nc4ccccc4s3)CC2)C(=O)N1Cc1ccccc1` (centres unmarked) [CBK267438]: 90%; for `COC(=O)c1ccccc1NC(=O)CSc1nnnn1C` [CBK267441]: 90%. Consider `Cn1nnnc1SCC(=O)Nc1ccc(C(=O)O)cc1` [CBK267442], for which the viability at 28.5 h, 10 µM came out at 87.3%. Take `CCOC(=O)CC(=O)CSc1nc(C)cc(-c2cccs2)c1C#N` [CBK267446]: the viability at 28.5 h, 10 µM worked out at 86.6%. For `N#Cc1c(C(F)(F)F)cc(-c2ccco2)nc1SCc1ccccn1` [CBK267450], the viability at 28.5 h, 10 µM is 88.5%. For the compound `N#Cc1c(C(F)(F)F)cc(-c2ccncc2)nc1SCCN1CCCCCC1` [CBK267451], the viability at 28.5 h, 10 µM came out at 85.3%. As to `CC(Sc1nc(-c2cccnc2)ccc1C#N)C(=O)O` (centres unmarked) [CBK267452], the viability at 28.5 h, 10 µM is 90.7%.

Consider `CCc1[nH]nc2c1C1(CN3CCC1CC3)C(C#N)=C(N)O2` (centres unmarked) [CBK267454], for which the viability at 28.5 h, 10 µM is 101%. Regarding `N#Cc1sc2nc(C34CC5CC(CC(C5)C3)C4)ccc2c1N` [CBK267455], the viability at 28.5 h, 10 µM stood at 93.8%. For `COc1cccc(CSC2=C(C#N)C(c3cccs3)C(C(=O)Nc3ccccc3)=C(C)N2)c1` (centres unmarked) [CBK267458], the viability at 28.5 h, 10 µM was 83.2%. On to `CCOC(=O)CC(=O)CSc1nc(C)cc(-c2cccnc2)c1C#N` [CBK267460], for which the viability at 28.5 h, 10 µM turned out to be 94%. Same read-out and setting: the value for `COc1cc2c(cc1OC)CN(C(=O)CSc1nc3c(c(-c4cccs4)c1C#N)CN(C)CC3)CC2` [CBK267462] was 91.3%. Regarding `COc1cc2c(cc1OC)CN(C(=O)CSc1nc(-c3cccnc3)ccc1C#N)CC2` [CBK267464], the viability at 28.5 h, 10 µM was found to be 69.8%.

As to `COc1ccc(NC(=O)CN2CCN(S(=O)(=O)N(C)C)CC2)cc1` [CBK267465], the viability at 28.5 h, 10 µM came to 93.3%. Same read-out and setting: the same measure for `O=S(=O)(N1CCNCC1)N1CCOCC1` [CBK267467]: 88.5%; for `OC(COc1cccc(Oc2ccccc2)c1)CN1CCN(c2ccccc2F)CC1` (centres unmarked) [CBK267468]: 95.5%; for `O=C(c1cccc([N+](=O)[O-])c1)N1CCN(S(=O)(=O)N2CCOCC2)CC1` [CBK267469]: 100%. Take `O=C(Cc1cccc2ccccc12)NC(=S)Nc1cccc(C(=O)O)c1` [CBK267471]: the viability at 28.5 h, 10 µM is 90.7%. For the compound `Cc1ccc(S(=O)(=O)NC2(C(F)(F)F)NC(=O)N(c3ccc(F)c(Cl)c3)C2=O)cc1` (centres unmarked) [CBK267473], the viability at 28.5 h, 10 µM was found to be 97.2%. With `O=C1NC(c2ccccc2)=NC1(NS(=O)(=O)c1ccccc1)C(F)(F)F` (centres unmarked) [CBK267474], the viability at 28.5 h, 10 µM worked out at 88.3%.

Regarding `CC(C)(C)C(=O)NC1(C(F)(F)F)N=C(c2ccccc2)NC1=O` (centres unmarked) [CBK267475], the viability at 28.5 h, 10 µM turned out to be 88.7%. Consider `Cc1cccc(NC2(C(F)(F)F)N=C(c3ccccc3)NC2=O)n1` (centres unmarked) [CBK267476], for which the viability at 28.5 h, 10 µM turned out to be 92.9%.

Regarding `Cc1cc(C)c2c(C)nn(-c3ccc(C(=O)O)cc3)c2n1` [CBK267480], the viability at 28.5 h, 10 µM was determined as 89.6%. `Cc1cc(C)c2c(C(C)(C)C)nn(-c3ccc(C(=O)O)cc3)c2n1` [CBK267481]: the viability at 28.5 h, 10 µM is 88.4%. Consider `Cc1ccccc1C(=O)NC1(C(F)(F)F)C(=O)Nc2c1c(=O)[nH]c(=O)n2CCc1ccccc1` (centres unmarked) [CBK267483], for which the viability at 28.5 h, 10 µM came to 86.6%. Consider `O=C1N2CCSC2=NC1(Nc1nccs1)C(F)(F)F` (centres unmarked) [CBK267484], for which the viability at 28.5 h, 10 µM amounted to 84.1%. For the compound `COc1cc(C2NC(=S)NC(c3ccccc3)=C2C(=O)c2ccccc2)cc(I)c1OCCO` (centres unmarked) [CBK267485], the viability at 28.5 h, 10 µM is 86.7%.

Regarding `COC(=O)c1c(NC(=S)NC(=O)c2c(Br)c(C)nn2C)sc2c1CCCCCC2` [CBK267486], the viability at 28.5 h, 10 µM is 94.5%. The same measure, in the same setting: the same measure for `Cc1cc(O)nc(SCC(=O)Nc2cc([N+](=O)[O-])ccc2C)n1` [CBK267488]: 97.9%; for `Cn1c(=O)c2c(nc(NCCO)n2CCc2ccccc2)n(C)c1=O` [CBK267497]: 87.8%; for `Cn1c(OCc2cccnc2)nc2c1c(=O)n(Cc1ccc(Cl)c(Cl)c1)c(=O)n2C` [CBK267498]: 84.2%. As to `COc1cccc(NC(=O)CN(c2cccc(C(C)=O)c2)S(C)(=O)=O)c1` [CBK267502], the viability at 28.5 h, 10 µM was determined as 111%. Same read-out and setting: the value for `CC1CCN(CC(CS(=O)(=O)c2ccc([N+](=O)[O-])cc2)N2CCC(C)CC2)CC1` (centres unmarked) [CBK267506] was 86.2%. With `Cc1ccc(SCCNS(=O)(=O)c2cccc([N+](=O)[O-])c2)cc1` [CBK267508], the viability at 28.5 h, 10 µM came out at 81.4%. Take `CCN(CC(=O)NCc1ccc(C)cc1)S(=O)(=O)c1ccc(C)cc1` [CBK267511]: the viability at 28.5 h, 10 µM came to 110%. Turning to `CS(=O)(=O)N(CC(=O)Nc1ccc(S(N)(=O)=O)cc1)Cc1ccc(Cl)cc1` [CBK267512], the viability at 28.5 h, 10 µM amounted to 98.8%.

For `c1ccc(CCn2c3ccccc3c3nnc(SCc4ccc5nonc5c4)nc32)cc1` [CBK267516], the viability at 28.5 h, 10 µM came out at 97.4%. Same read-out and setting: the same measure for `O=C(O)CCc1nn2c3ccccc3n(CC(=O)c3cccs3)c2nc1=O` [CBK267518]: 99.8%; for `O=C(O)CCc1nn2c3ccccc3nc2n(-c2ccccc2)c1=O` [CBK267520]: 90.6%; for `CCOC(=O)c1c(CN2CCCC2)nc2c3ccccc3ccn12` [CBK267521C]: 107%. As for `Nc1cc(N)nc(SCC(=O)Nc2nonc2N)n1` [CBK267522], the viability at 28.5 h, 10 µM amounted to 89.1%. As to `CSc1nc(C)cc(OCC(=O)Nc2ccc(Cl)cc2)n1` [CBK267525], the viability at 28.5 h, 10 µM came to 94.8%. `O=C(CSc1nnc(-c2cccnc2)n1Cc1ccccc1)Nc1ccc(Br)cc1` [CBK267527]: the viability at 28.5 h, 10 µM was 94.5%. `Cc1ccc(N2CC(C(=O)NCCc3ccc(S(N)(=O)=O)cc3)CC2=O)cc1` (centres unmarked) [CBK267531]: the viability at 28.5 h, 10 µM was determined as 84.4%. As to `Cc1c(C(=O)Nc2ccc(S(=O)(=O)N(C)Cc3ccccc3)cc2)cccc1[N+](=O)[O-]` [CBK267534], the viability at 28.5 h, 10 µM was found to be 109%. For the compound `Cc1onc(-c2ccccc2Cl)c1C(=O)Nc1ccc(S(=O)(=O)NCC2CCCO2)cc1` (centres unmarked) [CBK267536], the viability at 28.5 h, 10 µM came out at 88.9%.

With `O=C(Nc1ccc(S(=O)(=O)NCC2CCCO2)cc1)c1cc(-c2ccccc2)nc2ccccc12` (centres unmarked) [CBK267537], the viability at 28.5 h, 10 µM was 84.3%. As for `N#Cc1ccc(CSc2nnc(COc3ccccc3)n2Cc2ccco2)cc1` [CBK267539], the viability at 28.5 h, 10 µM was determined as 87.9%. Same read-out and setting: the value for `CN1CCN(CC(=O)N2N=C(c3c(-c4ccccc4)c4cc(Cl)ccc4[nH]c3=O)CC2c2ccccc2)CC1` (centres unmarked) [CBK267545] was 88.9%; that for `COc1cc(NC(=O)CSc2ncnc3sc4c(c23)CCCC4)cc(OC)c1` [CBK267547] was 89.6%; that for `COc1ccc(CSc2nnc(-c3ccco3)n2N)cc1` [CBK267548] was 90.3%. The same measure, in the same setting: the value for `Nn1c(SCC(=O)Nc2ccc3c(c2)OCO3)nnc1-c1ccccn1` [CBK267550] was 101%. `Nn1c(SCC(=O)Nc2ccc3c(c2)OCCO3)nnc1-c1ccccn1` [CBK267551]: the viability at 28.5 h, 10 µM turned out to be 87.4%. Still for that read-out and setting: the same measure for `O=C(CSc1nnc(-c2ccco2)n1Cc1ccco1)c1ccc(-c2ccccc2)cc1` [CBK267555]: 91.1%. Consider `Fc1ccccc1CSc1nnc(-c2cnccn2)n1Cc1ccco1` [CBK267556], for which the viability at 28.5 h, 10 µM was determined as 96.4%. Still for that read-out and setting: the same measure for `NC(=O)CC1Nc2cccc3cccc(c23)NC1=O` (centres unmarked) [CBK267560]: 75%; for `COC(=O)c1c(NC(=O)CC2Nc3cccc4cccc(c34)NC2=O)sc(C)c1C` (centres unmarked) [CBK267562]: 68.3%. The same measure, in the same setting: the value for `CCc1cc(C(=O)OC)c(NC(=O)CC2Nc3cccc4cccc(c34)NC2=O)s1` (centres unmarked) [CBK267563] was 59.8%. For `COc1cc(OC)c(S(=O)(=O)N2CCOCC2)cc1S(=O)(=O)N1CCOCC1` [CBK267564], the viability at 28.5 h, 10 µM is 98.1%. As for `Cn1c(=O)n(C)c2cc(S(=O)(=O)ON3C(=O)c4cccc5cc([N+](=O)[O-])cc(c45)C3=O)ccc21` [CBK267566], the viability at 28.5 h, 10 µM came out at 91.6%.

Turning to `Cn1c(=O)oc2cc(S(=O)(=O)NCCC(=O)O)ccc21` [CBK267567], the viability at 28.5 h, 10 µM is 89.3%. Take `Cn1c(=O)oc2cc(S(=O)(=O)NCc3ccccc3)ccc21` [CBK267568]: the viability at 28.5 h, 10 µM turned out to be 90.8%. Take `Cc1ccc2cc(S(=O)(=O)NCCC(=O)O)ccc2c1` [CBK267569]: the viability at 28.5 h, 10 µM is 96.5%.

On to `CC(=O)Nc1ccc(S(=O)(=O)N(C)CC(=O)O)cc1` [CBK267570], for which the viability at 28.5 h, 10 µM came to 97.8%. Regarding `COc1ccc(S(=O)(=O)N2CCC(C(=O)O)(c3ccccc3)CC2)cc1` [CBK267572], the viability at 28.5 h, 10 µM amounted to 94.3%. The same measure, in the same setting: the value for `CC1(C)CC(=O)c2c(O)cc(OCC(=O)c3ccc(Cl)c(Cl)c3)cc2O1` [CBK267573] was 89.1%. As for `O=C(CSc1nnc(SCc2cccc3ccccc23)s1)Nc1ccccc1C(F)(F)F` [CBK267575], the viability at 28.5 h, 10 µM came out at 103%.

Still in this data set, the particulars now being: human, hela cells, % viability, bulk resorufin, single well.
As to `O=C(Cn1cc(C(=O)c2ccco2)c2ccccc21)NCCc1c[nH]c2ccccc12` [CBK267509], the viability at 28.5 h, 10 µM turned out to be 97.9%.
